IC50 data for 14 compounds are collected here from patent US20240409585A1, “MACROCYCLIC IMMUNOMODULATORS” (priority 2021, published 2024).

SMILES strings stand for the structures. Numbered stars: 1 amine (or outer) side, 2 acyl side, 3 side chain; on linkers, the order of the positions; unused ones are H or OH. Bridge positions count the residues as written; N and C are the ends. Square brackets hold non-standard residues; d marks the D form. Peptide text beside a SMILES is read from it. * marks the point of attachment. X15 = COC(=O)c1ccc(NS(=O)(=O)NC(=O)C[C@H](N[*:1])C(=O)[*:2])cc1; Phe(3-allyloxy) = C=CCOc1cccc(C[C@H](N)C(=O)O)c1; Phe(3-CF3) = N[C@@H](Cc1cccc(C(F)(F)F)c1)C(=O)O; Ala(morpholin-4-yl) = N[C@@H](CN1CCOCC1)C(=O)O; Phe(3-COOH) = N[C@@H](Cc1cccc(C(=O)O)c1)C(=O)O; Phe(4-COOH) = N[C@@H](Cc1ccc(C(=O)O)cc1)C(=O)O; Phe(4-CH2NH2) = NCc1ccc(C[C@H](N)C(=O)O)cc1; Bip = N[C@@H](Cc1ccc(-c2ccccc2)cc1)C(=O)O; Phe(3-Br) = N[C@@H](Cc1cccc(Br)c1)C(=O)O; Phe(3-Cl) = N[C@@H](Cc1cccc(Cl)c1)C(=O)O; Phe(3-Me) = Cc1cccc(C[C@H](N)C(=O)O)c1; Val(3-OH) = CC(C)(O)[C@H](N)C(=O)O; 4Pal = N[C@@H](Cc1ccncc1)C(=O)O; Cha = N[C@@H](CC1CCCCC1)C(=O)O; Cit = NC(=O)NCCC[C@H](N)C(=O)O; dPhg = N[C@@H](C(=O)O)c1ccccc1; Carboxymethyl = O=C(O)C*; NMeA = CN[C@@H](C)C(=O)O; Orn = NCCC[C@H](N)C(=O)O; Dab = NCC[C@H](N)C(=O)O; Dap = NC[C@H](N)C(=O)O

The target in one assay is T1, PE-labeled human PD-L1-Ig binding to Jurkat cell line over-expressing human PD-1 (Jurkat-PD-1) (Homo sapiens, UniProt Q15116).
T1 construct: expressed in transfected cells; host or cells: Jurkat
T1 sequence (Q15116 25-288): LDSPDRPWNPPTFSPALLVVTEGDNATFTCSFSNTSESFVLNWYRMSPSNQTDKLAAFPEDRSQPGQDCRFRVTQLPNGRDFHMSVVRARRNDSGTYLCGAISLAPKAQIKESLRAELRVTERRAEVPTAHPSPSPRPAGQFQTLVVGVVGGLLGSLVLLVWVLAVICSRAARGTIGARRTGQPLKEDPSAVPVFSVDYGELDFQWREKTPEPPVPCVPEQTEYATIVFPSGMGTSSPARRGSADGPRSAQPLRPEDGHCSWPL
As to the kind of experiment: Jurkat-PD-1 Cell Binding High-Content Screening Assay (CBA): Method 1. Particulars: Jurkat-PD-1 cells, PE-labeled PD-L1-Ig; μM; read-out: CBA Method 1 μM.
As to `COC(=O)c1ccc(NS(=O)(=O)NC(=O)C[C@@H]2NC(=O)[C@H](Cc3ccc(C(=O)O)cc3)NC(=O)[C@H](CN3CCOCC3)NC(=O)CSC[C@@H](C(=O)N[C@@H](CCN)C(N)=O)NC(=O)[C@H](CCCN)NC(=O)[C@H](C(C)C)NC(=O)[C@H](CC3CCCCC3)NC(=O)[C@H](CCN)NC(=O)[C@@H](CC(C)C)NC(=O)[C@H](C)N(C)C(=O)[C@H](CCC(N)=O)NC(=O)[C@H](Cc3ccc(-c4ccccc4)cc3)NC(=O)[C@H](Cc3ccc(C(=O)O)cc3)NC(=O)[C@H](Cc3cccc(C(F)(F)F)c3)NC2=O)cc1` [Example 5083] ({CH2CO}-[Ala(morpholin-4-yl)][Phe(4-COOH)][X15][Phe(3-CF3)][Phe(4-COOH)][Bip]Q[NMeA][dL][Dab][Cha]V[Orn]C[Dab]-NH2; thioether N-14), the IC50 came out at 0.355 µM.

The same assay, now with this note: Jurkat-hPD-1 cells, PE-labeled PD-L1-Ig 20 nM final; read-out: Jurkat HPDL1 PD1 IC50 (uM) (Method 1).
For the compound `Cc1cccc(C[C@@H]2NC(=O)[C@H](CC(=O)O)NC(=O)[C@H](Cc3ccc(OCC(=O)O)cc3)NC(=O)[C@H]([C@@H](C)O)NC(=O)CSC[C@@H](C(N)=O)NC(=O)[C@H](CC(=O)O)NC(=O)[C@H](C(C)C)NC(=O)[C@H](CC3CCCCC3)NC(=O)[C@H](CC(N)=O)NC(=O)[C@@H](CC(C)C)NC(=O)[C@H](C)N(C)C(=O)[C@H](Cc3ccc(OCC(=O)O)cc3)NC(=O)[C@H](Cc3ccc(-c4ccccc4)cc3)NC(=O)[C@H](Cc3ccc(OCC(=O)O)cc3)NC2=O)c1` [Compound 1676] ({CH2CO}-TY(Carboxymethyl)D[Phe(3-Me)]Y(Carboxymethyl)[Bip]Y(Carboxymethyl)[NMeA][dL]N[Cha]VDC-NH2; thioether N-14), the IC50 was 0.24 µM.
The same measure, in the same setting: for `Cc1cccc(C[C@@H]2NC(=O)[C@H](CC(=O)O)NC(=O)[C@H](Cc3ccc(OCC(=O)O)cc3)NC(=O)[C@H](Cc3ccncc3)NC(=O)CSC[C@@H](C(=O)N[C@@H](CCN)C(N)=O)NC(=O)[C@H](CCC(N)=O)NC(=O)[C@H](C(C)(C)O)NC(=O)[C@H](CC3CCCCC3)NC(=O)[C@H](CCN)NC(=O)[C@@H](CC(C)C)NC(=O)[C@H](C)N(C)C(=O)[C@H](Cc3ccc(OCC(=O)O)cc3)NC(=O)[C@H](Cc3ccc(-c4ccccc4)cc3)NC(=O)[C@H](Cc3ccc(OCC(=O)O)cc3)NC2=O)c1` [Compound 2192] ({CH2CO}-[4Pal]Y(Carboxymethyl)D[Phe(3-Me)]Y(Carboxymethyl)[Bip]Y(Carboxymethyl)[NMeA][dL][Dab][Cha][Val(3-OH)]QC[Dab]-NH2; thioether N-14) the value was 0.02 µM.
Same read-out and setting: next, `COc1ccc(C[C@@H]2NC(=O)[C@H](Cc3ccccc3)NC(=O)CSC[C@@H](C(=O)N[C@@H](C)C(N)=O)NC(=O)[C@H]([C@@H](C)O)NC(=O)[C@H](C(C)C)NC(=O)[C@H](CC(C)C)NC(=O)[C@H](CCCNC(=N)N)NC(=O)[C@@H](CC(C)C)NC(=O)[C@H](C)N(C)C(=O)[C@H](CCCNC(=N)N)NC(=O)[C@H](Cc3ccc(-c4ccccc4)cc3)NC(=O)[C@H](C(C)C)NC(=O)[C@H](Cc3c[nH]c4ccccc34)NC(=O)[C@H](CC(=O)O)NC2=O)cc1` [Compound 1091] ({CH2CO}-FY(Me)DWV[Bip]R[NMeA][dL]RLVTCA-NH2; thioether N-14): 0.09 µM.
Turning to `Cc1cccc(C[C@@H]2NC(=O)[C@H](CC(=O)O)NC(=O)[C@H](Cc3ccc(C(=O)O)cc3)NC(=O)[C@H](Cc3ccc(OCC(=O)O)cc3)NC(=O)CSC[C@@H](C(N)=O)NC(=O)[C@H](CO)NC(=O)[C@H](C(C)C)NC(=O)[C@H](CC(C)C)NC(=O)[C@H](Cc3c[nH]cn3)NC(=O)[C@@H](CC(C)C)NC(=O)[C@H](C)N(C)C(=O)[C@H](C(C)C)NC(=O)[C@H](Cc3ccc(-c4ccccc4)cc3)NC(=O)[C@H](Cc3ccc(CN)cc3)NC2=O)c1` [Compound 1876] ({CH2CO}-Y(Carboxymethyl)[Phe(4-COOH)]D[Phe(3-Me)][Phe(4-CH2NH2)][Bip]V[NMeA][dL]HLVSC-NH2; thioether N-14), the IC50 worked out at 0.34 µM.
Same read-out and setting: next, `CC(C)C[C@@H]1NC(=O)[C@H](Cc2c[nH]c3ccccc23)NC(=O)[C@H](CC(=O)O)NC(=O)[C@H](Cc2ccc(C(=O)O)cc2)NC(=O)[C@H](CC(N)=O)NC(=O)CSC[C@@H](C(=O)N[C@@H](C)C(N)=O)NC(=O)[C@H](CO)NC(=O)[C@H](C(C)C)NC(=O)[C@H](CC(C)C)NC(=O)[C@H](CC(N)=O)NC(=O)[C@@H](C)NC(=O)[C@H](C)N(C)C(=O)[C@H](C(C)C)NC(=O)[C@H](Cc2ccc(-c3ccccc3)cc2)NC1=O` [Compound 1754] ({CH2CO}-N[Phe(4-COOH)]DWL[Bip]V[NMeA][dA]NLVSCA-NH2; thioether N-14): 0.03 µM; `CC(C)C[C@@H]1NC(=O)[C@H](CCCNC(=N)N)NC(=O)[C@@H](c2ccccc2)NC(=O)[C@H](C)N(C)C(=O)[C@H](CCCNC(=N)N)NC(=O)[C@H](Cc2ccc(-c3ccccc3)cc2)NC(=O)[C@H](C(C)C)NC(=O)[C@H](Cc2c[nH]c3ccccc23)NC(=O)[C@H](CC(=O)O)NC(=O)[C@H](Cc2ccc(O)cc2)NC(=O)[C@H](Cc2ccccc2)NC(=O)CSC[C@@H](C(=O)N[C@@H](C)C(N)=O)NC(=O)[C@H]([C@@H](C)O)NC(=O)[C@H](C(C)C)NC1=O` [Compound 1059] ({CH2CO}-FYDWV[Bip]R[NMeA][dPhg]RLVTCA-NH2; thioether N-14): 0.21 µM; `CC(C)C[C@@H]1NC(=O)[C@H](Cc2c[nH]c3ccccc23)NC(=O)[C@H](CC(=O)O)NC(=O)[C@H](Cc2ccc(C(=O)O)cc2)NC(=O)[C@H](Cc2cccc(C(=O)O)c2)NC(=O)CSC[C@@H](C(=O)NCC(N)=O)NC(=O)[C@H](CO)NC(=O)[C@H](C(C)C)NC(=O)[C@H](CC2CCCCC2)NC(=O)[C@H](CCN)NC(=O)[C@@H](CC(C)C)NC(=O)[C@H](C)N(C)C(=O)[C@H](C(C)C)NC(=O)[C@H](Cc2ccc(-c3ccccc3)cc2)NC1=O` [Compound 1879] ({CH2CO}-[Phe(3-COOH)][Phe(4-COOH)]DWL[Bip]V[NMeA][dL][Dab][Cha]VSCG-NH2; thioether N-14): 0.01 µM.
On the same count and under the same terms, for `CC(C)C[C@H]1NC(=O)[C@H](C)N(C)C(=O)[C@H](CCCNC(N)=O)NC(=O)[C@H](Cc2ccc(-c3ccccc3)cc2)NC(=O)[C@H](C(C)C)NC(=O)[C@H](Cc2c[nH]c3ccccc23)NC(=O)[C@H](CC(=O)O)NC(=O)[C@H](Cc2ccc(O)cc2)NC(=O)[C@H](Cc2ccc(OCC(=O)O)cc2)NC(=O)CSC[C@@H](C(=O)N[C@@H](C)C(N)=O)NC(=O)[C@H]([C@@H](C)O)NC(=O)[C@H](C(C)C)NC(=O)[C@H](CC2CCCCC2)NC(=O)[C@H](CCCNC(=N)N)NC1=O` [Compound 1504] ({CH2CO}-Y(Carboxymethyl)YDWV[Bip][Cit][NMeA][dL]R[Cha]VTCA-NH2; thioether N-14) the value was 0.02 µM; for `CC(C)C[C@@H]1NC(=O)[C@H](CCN)NC(=O)[C@@H](CC(C)C)NC(=O)[C@H](C)N(C)C(=O)[C@H](Cc2cnc[nH]2)NC(=O)[C@H](Cc2ccc(-c3ccccc3)cc2)NC(=O)[C@H](C(C)C)NC(=O)[C@H](Cc2c[nH]c3ccccc23)NC(=O)[C@H](CC(=O)O)NC(=O)[C@H](Cc2cccc(Cl)c2)NC(=O)[C@H](CN)NC(=O)CSC[C@@H](C(=O)N[C@@H](C)C(N)=O)NC(=O)[C@H]([C@@H](C)O)NC(=O)[C@H](C(C)C)NC1=O` [Compound 1440] ({CH2CO}-[Dap][Phe(3-Cl)]DWV[Bip]H[NMeA][dL][Dab]LVTCA-NH2; thioether N-14), 0.19 µM; for `Cc1cccc(C[C@@H]2NC(=O)[C@H](CC(=O)O)NC(=O)[C@H](Cc3ccc(OCC(=O)O)cc3)NC(=O)[C@H](CN3CCOCC3)NC(=O)CSC[C@@H](C(=O)N[C@@H](CCN)C(N)=O)NC(=O)[C@H](CCCN)NC(=O)[C@H](C(C)C)NC(=O)[C@H](Cc3cccc(Br)c3)NC(=O)[C@H](CCN)NC(=O)[C@@H](CC(C)C)NC(=O)[C@H](C)N(C)C(=O)[C@H](CCC(N)=O)NC(=O)[C@H](Cc3ccc(-c4ccccc4)cc3)NC(=O)[C@H](Cc3ccc(C(=O)O)cc3)NC2=O)c1` [Example 2291] ({CH2CO}-[Ala(morpholin-4-yl)]Y(Carboxymethyl)D[Phe(3-Me)][Phe(4-COOH)][Bip]Q[NMeA][dL][Dab][Phe(3-Br)]V[Orn]C[Dab]-NH2; thioether N-14), 0.21 µM.
Same read-out and setting: next, `C=CCOc1cccc(C[C@@H]2NC(=O)[C@H](Cc3ccccc3)NC(=O)CSC[C@@H](C(=O)N[C@@H](C)C(N)=O)NC(=O)[C@H](CO)NC(=O)[C@H](C(C)C)NC(=O)[C@H](CC(C)C)NC(=O)[C@H](CC(N)=O)NC(=O)[C@@H](C)NC(=O)[C@H](C)N(C)C(=O)[C@H](C(C)C)NC(=O)[C@H](Cc3ccc(-c4ccccc4)cc3)NC(=O)[C@H](CC(C)C)NC(=O)[C@H](Cc3c[nH]c4ccccc34)NC(=O)[C@H](CC(=O)O)NC2=O)c1` [Compound 1772] ({CH2CO}-F[Phe(3-allyloxy)]DWL[Bip]V[NMeA][dA]NLVSCA-NH2; thioether N-14): 0.04 µM.
Take `CC(C)C[C@@H]1NC(=O)[C@H](Cc2c[nH]c3ccccc23)NC(=O)[C@H](CC(=O)O)NC(=O)[C@H](Cc2ccc(OCC(=O)O)cc2)NC(=O)[C@H](Cc2ccccc2)NC(=O)CSC[C@@H](C(N)=O)NC(=O)[C@H](CO)NC(=O)[C@H](C(C)C)NC(=O)[C@H](CC(C)C)NC(=O)[C@H](CC(N)=O)NC(=O)[C@@H](CC(C)C)NC(=O)[C@H](C)N(C)C(=O)[C@H](CCC(=O)O)NC(=O)[C@H](Cc2ccc(-c3ccccc3)cc2)NC1=O` [Compound 1628] ({CH2CO}-FY(Carboxymethyl)DWL[Bip]E[NMeA][dL]NLVSC-NH2; thioether N-14): the IC50 is 0.09 µM.
Still for that read-out and setting: for `CC(C)C[C@@H]1NC(=O)CSC[C@@H](C(=O)N[C@@H](C)C(N)=O)NC(=O)[C@H]([C@@H](C)O)NC(=O)[C@H](C(C)C)NC(=O)[C@H](CC(C)C)NC(=O)[C@H](CCCNC(=N)N)NC(=O)[C@@H](CC(C)C)NC(=O)[C@H](C)N(C)C(=O)[C@H](CCCNC(=N)N)NC(=O)[C@H](Cc2ccc(-c3ccccc3)cc2)NC(=O)[C@H](C(C)C)NC(=O)[C@H](Cc2c[nH]c3ccccc23)NC(=O)[C@H](CC(=O)O)NC(=O)[C@H](Cc2ccc(O)cc2)NC1=O` [Compound 1050] ({CH2CO}-LYDWV[Bip]R[NMeA][dL]RLVTCA-NH2; thioether N-14) the value was 0.11 µM.
